Results taken from paper PMC9021288 (Nature Communications, 2022).
pIC50: −log10 of the molar value. Like-named read-outs stand apart in the source and are kept apart here.

Columns and labels:
hCaV 1.2 = molecular target: T1, hCaV 1.2 (Homo sapiens, UniProt Q13936); assay: Manual patch clamp; assay type: cell-based; settings: for Minimum current: single cells and Mean, mean
T1 construct: Metrion Biosciences
Procedure: (§1) Safety studies were performed by commercial services using their standard protocols. […] Genotoxicity was investigated using the Ames test (Bacterial Reverse Mutation Assay) (Covance Laboratories Ltd, North Yorkshire, England). In vitro mammalian cell micronucleus screening assay was studied in human peripheral blood lymphocytes (BioReliance Corporation, Rockville, USA). Cardiotoxicity was determined against the hERG channel in an automated patch clamp assay using the Qpatch or against the hNaV 1.5, hKV 1.5 and hCaV 1.2 using a manual patch-clamp technique (Metrion Biosciences, Cambridge, UK). Cytotoxicity in human and rat primary hepatocytes was assessed using the CellTiter-Blue assay performed by commercial services (KaLy-Cell). The viability of HepG2 cells was monitored through the addition of 1 mM resazurin. Following 6 h incubation, the relative amount of reduced resazurin was detected in a fluorimeter and compared to the assay controls (vehicle: 0.1% DMSO and positive control: 10 µM puromycin).

hKV 1.5 = molecular target: T2, hKV 1.5 (Homo sapiens, UniProt P22460); assay: Manual patch clamp; assay type: cell-based; settings: for Charge / Peak current: single cells and Mean, mean
T2 construct: Metrion Biosciences
T2 sequence (P22460 whole entry): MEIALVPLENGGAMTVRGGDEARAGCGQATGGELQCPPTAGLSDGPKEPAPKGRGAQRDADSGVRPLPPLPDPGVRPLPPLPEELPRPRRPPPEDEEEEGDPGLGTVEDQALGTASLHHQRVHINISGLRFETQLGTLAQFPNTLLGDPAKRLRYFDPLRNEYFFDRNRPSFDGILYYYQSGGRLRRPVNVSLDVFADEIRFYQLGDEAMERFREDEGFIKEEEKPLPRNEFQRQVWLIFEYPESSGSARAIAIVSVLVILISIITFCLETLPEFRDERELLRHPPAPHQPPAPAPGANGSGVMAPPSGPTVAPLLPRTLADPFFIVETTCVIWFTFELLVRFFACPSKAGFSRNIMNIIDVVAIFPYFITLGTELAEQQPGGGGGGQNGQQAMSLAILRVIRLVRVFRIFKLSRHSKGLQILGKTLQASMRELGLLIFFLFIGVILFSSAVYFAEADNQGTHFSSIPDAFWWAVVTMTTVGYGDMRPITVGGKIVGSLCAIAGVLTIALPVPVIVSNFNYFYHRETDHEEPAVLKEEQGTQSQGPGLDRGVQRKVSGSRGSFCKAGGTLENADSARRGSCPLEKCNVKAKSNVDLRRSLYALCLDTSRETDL
Procedure: as §1

[1] = system: TA98, TA100, TA102, TA1535, TA1537
Procedure: as §1

T1 sequence (Q13936 whole entry): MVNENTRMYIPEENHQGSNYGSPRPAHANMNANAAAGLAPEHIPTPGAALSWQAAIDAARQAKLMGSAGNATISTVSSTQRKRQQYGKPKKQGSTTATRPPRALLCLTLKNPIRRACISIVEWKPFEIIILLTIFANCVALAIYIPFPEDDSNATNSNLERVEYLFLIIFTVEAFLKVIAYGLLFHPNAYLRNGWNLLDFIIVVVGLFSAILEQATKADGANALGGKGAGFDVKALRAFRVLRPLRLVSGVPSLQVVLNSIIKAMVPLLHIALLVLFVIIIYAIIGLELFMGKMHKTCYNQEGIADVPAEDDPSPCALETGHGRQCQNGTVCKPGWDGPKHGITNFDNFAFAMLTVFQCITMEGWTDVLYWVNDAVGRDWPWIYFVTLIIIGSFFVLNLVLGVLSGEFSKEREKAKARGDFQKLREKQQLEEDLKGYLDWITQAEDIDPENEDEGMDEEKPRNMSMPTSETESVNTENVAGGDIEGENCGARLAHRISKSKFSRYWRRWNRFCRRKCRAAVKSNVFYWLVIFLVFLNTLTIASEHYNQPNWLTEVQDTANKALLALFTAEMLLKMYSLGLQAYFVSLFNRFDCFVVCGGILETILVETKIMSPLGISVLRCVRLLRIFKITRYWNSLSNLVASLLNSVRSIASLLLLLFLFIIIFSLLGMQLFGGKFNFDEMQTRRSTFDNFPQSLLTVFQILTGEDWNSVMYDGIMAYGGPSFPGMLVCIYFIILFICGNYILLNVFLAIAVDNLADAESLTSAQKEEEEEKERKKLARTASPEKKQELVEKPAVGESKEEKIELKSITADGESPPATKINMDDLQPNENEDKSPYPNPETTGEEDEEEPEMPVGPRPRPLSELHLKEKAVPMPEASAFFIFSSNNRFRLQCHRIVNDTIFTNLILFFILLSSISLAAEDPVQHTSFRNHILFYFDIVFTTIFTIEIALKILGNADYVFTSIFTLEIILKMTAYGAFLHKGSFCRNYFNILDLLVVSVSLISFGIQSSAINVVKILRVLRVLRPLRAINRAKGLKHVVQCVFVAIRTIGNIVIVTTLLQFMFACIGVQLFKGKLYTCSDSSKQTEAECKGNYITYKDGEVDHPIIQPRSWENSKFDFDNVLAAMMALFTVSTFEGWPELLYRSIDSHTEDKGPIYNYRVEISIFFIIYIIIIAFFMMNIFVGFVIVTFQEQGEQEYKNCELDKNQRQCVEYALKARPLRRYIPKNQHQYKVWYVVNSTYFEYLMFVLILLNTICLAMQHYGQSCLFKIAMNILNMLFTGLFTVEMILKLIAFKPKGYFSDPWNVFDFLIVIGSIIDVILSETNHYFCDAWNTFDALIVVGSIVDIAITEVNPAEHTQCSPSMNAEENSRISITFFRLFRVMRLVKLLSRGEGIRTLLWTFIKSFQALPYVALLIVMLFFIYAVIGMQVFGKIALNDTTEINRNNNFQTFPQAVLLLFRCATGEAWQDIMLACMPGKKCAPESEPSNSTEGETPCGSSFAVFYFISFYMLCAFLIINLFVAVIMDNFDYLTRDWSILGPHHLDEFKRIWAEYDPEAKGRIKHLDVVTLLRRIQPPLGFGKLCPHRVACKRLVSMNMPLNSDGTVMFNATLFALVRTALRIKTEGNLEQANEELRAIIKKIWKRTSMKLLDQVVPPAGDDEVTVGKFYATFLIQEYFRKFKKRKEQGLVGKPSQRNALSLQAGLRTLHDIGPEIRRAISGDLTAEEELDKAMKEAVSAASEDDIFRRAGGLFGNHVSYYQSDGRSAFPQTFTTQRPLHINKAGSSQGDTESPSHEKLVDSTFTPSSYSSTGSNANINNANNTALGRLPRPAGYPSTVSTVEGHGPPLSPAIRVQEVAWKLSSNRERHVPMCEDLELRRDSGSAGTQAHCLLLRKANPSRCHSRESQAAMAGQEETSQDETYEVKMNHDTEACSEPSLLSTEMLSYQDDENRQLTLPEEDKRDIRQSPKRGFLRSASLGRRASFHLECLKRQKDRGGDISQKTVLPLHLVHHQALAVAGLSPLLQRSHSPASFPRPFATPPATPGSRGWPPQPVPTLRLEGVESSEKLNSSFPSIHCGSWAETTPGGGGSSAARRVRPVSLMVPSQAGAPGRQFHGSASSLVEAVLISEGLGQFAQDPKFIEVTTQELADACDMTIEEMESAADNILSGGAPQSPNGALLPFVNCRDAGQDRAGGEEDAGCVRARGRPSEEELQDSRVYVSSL
T1 sequence (Q08289 whole entry partner): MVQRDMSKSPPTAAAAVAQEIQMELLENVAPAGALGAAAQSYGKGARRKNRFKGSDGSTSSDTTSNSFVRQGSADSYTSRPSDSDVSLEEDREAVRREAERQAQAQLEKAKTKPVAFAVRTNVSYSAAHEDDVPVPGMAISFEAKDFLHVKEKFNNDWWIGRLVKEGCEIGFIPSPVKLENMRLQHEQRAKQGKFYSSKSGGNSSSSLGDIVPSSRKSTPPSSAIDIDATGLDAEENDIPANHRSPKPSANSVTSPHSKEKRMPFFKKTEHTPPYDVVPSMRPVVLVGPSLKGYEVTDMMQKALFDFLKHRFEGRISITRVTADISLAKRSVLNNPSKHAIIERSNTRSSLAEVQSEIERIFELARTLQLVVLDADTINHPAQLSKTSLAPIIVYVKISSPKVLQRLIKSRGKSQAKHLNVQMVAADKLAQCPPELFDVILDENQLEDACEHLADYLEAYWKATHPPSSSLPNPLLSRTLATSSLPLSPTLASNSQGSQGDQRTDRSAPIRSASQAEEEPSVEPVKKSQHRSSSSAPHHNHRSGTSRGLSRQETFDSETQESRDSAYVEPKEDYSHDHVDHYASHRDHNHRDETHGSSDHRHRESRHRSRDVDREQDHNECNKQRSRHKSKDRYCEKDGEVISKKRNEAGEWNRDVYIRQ
T1 sequence (P54289 25-946 partner limits assumed): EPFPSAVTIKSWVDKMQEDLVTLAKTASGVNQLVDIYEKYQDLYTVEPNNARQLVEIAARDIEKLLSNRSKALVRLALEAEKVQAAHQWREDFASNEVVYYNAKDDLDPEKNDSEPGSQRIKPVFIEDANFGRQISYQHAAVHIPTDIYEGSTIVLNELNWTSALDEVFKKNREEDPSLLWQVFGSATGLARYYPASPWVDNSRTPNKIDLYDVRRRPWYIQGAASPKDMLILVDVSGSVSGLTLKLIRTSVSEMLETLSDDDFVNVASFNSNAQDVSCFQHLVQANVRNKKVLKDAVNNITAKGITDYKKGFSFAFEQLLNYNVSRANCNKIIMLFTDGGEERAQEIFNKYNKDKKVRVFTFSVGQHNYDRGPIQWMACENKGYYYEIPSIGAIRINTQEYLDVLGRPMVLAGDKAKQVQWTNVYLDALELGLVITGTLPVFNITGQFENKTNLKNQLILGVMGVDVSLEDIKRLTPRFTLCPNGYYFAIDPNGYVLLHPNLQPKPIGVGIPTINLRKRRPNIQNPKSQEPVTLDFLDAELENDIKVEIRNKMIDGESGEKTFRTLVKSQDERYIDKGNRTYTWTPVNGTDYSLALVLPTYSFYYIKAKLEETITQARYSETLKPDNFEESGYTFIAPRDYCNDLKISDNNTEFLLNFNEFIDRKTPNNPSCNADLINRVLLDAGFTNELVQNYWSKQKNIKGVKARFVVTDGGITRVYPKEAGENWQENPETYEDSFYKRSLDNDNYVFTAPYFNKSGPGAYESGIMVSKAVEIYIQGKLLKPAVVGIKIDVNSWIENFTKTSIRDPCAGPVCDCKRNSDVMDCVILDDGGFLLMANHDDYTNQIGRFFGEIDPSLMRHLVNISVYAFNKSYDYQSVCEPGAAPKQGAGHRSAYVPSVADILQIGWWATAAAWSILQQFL
T1 sequence (P54289 947-1103 partner limits assumed): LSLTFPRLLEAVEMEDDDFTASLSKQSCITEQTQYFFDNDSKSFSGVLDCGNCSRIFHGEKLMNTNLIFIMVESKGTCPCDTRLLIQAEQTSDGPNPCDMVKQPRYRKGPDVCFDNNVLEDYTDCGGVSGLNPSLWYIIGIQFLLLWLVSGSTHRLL

C[C@@H](CNC(=O)[C@H](O)C(C)(C)CO)NC(=O)c1cc(F)c(F)cc1F [MMV693183]
Inhibition (hCaV 1.2; 10 µM): 24.20%
Minimum current (hCaV 1.2; Cav1.2, 0.3uM): 4.49%
Minimum current (hCaV 1.2; Cav1.2, 1uM): 7.60%
Minimum current (hCaV 1.2; Cav1.2, 10uM): 24.20%
pIC50 (hCaV 1.2; hCaV 1.2): < 5.00
Inhibition (hKV 1.5; 10 µM): 2.15%
pIC50 (hKV 1.5; hKV 1.5): < 5.00
Charge (hKV 1.5; hKv1.5, 300nM): 4.53%
Peak current (hKV 1.5; hKv1.5, 300nM): 0.19%
Peak current (hKV 1.5; hKv1.5, 1uM): 1.06%
Charge (hKV 1.5; hKv1.5, 3uM): 8.60%
Peak current (hKV 1.5; hKv1.5, 3uM): 0.58%
Peak current (hKV 1.5; hKv1.5, 10uM): 2.15%
Fold Increase ([1]; TA98, +S-9, 5 ug/plate): 1.1
Mean (Revertant Numbers Per Plate) ([1]; TA98, +S-9, 5 ug/plate): 36.3
Fold Increase ([1]; TA98, +S-9, 16 ug/plate): 1.1
Mean (Revertant Numbers Per Plate) ([1]; TA98, +S-9, 16 ug/plate): 37
Fold Increase ([1]; TA98, +S-9, 50 ug/plate): 1.2
Mean (Revertant Numbers Per Plate) ([1]; TA98, +S-9, 50 ug/plate): 39.7
Fold Increase ([1]; TA98, +S-9, 160 ug/plate): 1.1
Mean (Revertant Numbers Per Plate) ([1]; TA98, +S-9, 160 ug/plate): 36.7
Fold Increase ([1]; TA98, +S-9, 500 ug/plate): 1.3
Mean (Revertant Numbers Per Plate) ([1]; TA98, +S-9, 500 ug/plate): 42.3
Fold Increase ([1]; TA98, +S-9, 1600 ug/plate): 1
Mean (Revertant Numbers Per Plate) ([1]; TA98, +S-9, 1600 ug/plate): 32.3
Fold Increase ([1]; TA98, +S-9, 5000 ug/plate): 0.8
Mean (Revertant Numbers Per Plate) ([1]; TA98, +S-9, 5000 ug/plate): 26.3
Fold Increase ([1]; TA98, -S-9, 5 ug/plate): 0.8
Mean (Revertant Numbers Per Plate) ([1]; TA98, -S-9, 5 ug/plate): 22.3
Fold Increase ([1]; TA98, -S-9, 16 ug/plate): 1.1
Mean (Revertant Numbers Per Plate) ([1]; TA98, -S-9, 16 ug/plate): 29.7
Fold Increase ([1]; TA98, -S-9, 50 ug/plate): 0.9
Mean (Revertant Numbers Per Plate) ([1]; TA98, -S-9, 50 ug/plate): 26.3
Fold Increase ([1]; TA98, -S-9, 160 ug/plate): 0.8
Mean (Revertant Numbers Per Plate) ([1]; TA98, -S-9, 160 ug/plate): 23.7
Fold Increase ([1]; TA98, -S-9, 500 ug/plate): 0.7
Mean (Revertant Numbers Per Plate) ([1]; TA98, -S-9, 500 ug/plate): 20.3
Fold Increase ([1]; TA98, -S-9, 1600 ug/plate): 0.8
Mean (Revertant Numbers Per Plate) ([1]; TA98, -S-9, 1600 ug/plate): 22.7
Fold Increase ([1]; TA98, -S-9, 5000 ug/plate): 1
Mean (Revertant Numbers Per Plate) ([1]; TA98, -S-9, 5000 ug/plate): 26.7
difference in revertant numbers vs control ([1]; TA98, TA100): < 2 fold
Fold Increase ([1]; TA100, +S-9, 5 ug/plate): 0.9
Mean (Revertant Numbers Per Plate) ([1]; TA100, +S-9, 5 ug/plate): 107.3
Fold Increase ([1]; TA100, +S-9, 16 ug/plate): 1
Mean (Revertant Numbers Per Plate) ([1]; TA100, +S-9, 16 ug/plate): 122.7
Fold Increase ([1]; TA100, +S-9, 50 ug/plate): 1.1
Mean (Revertant Numbers Per Plate) ([1]; TA100, +S-9, 50 ug/plate): 128.3
Fold Increase ([1]; TA100, +S-9, 160 ug/plate): 1
Mean (Revertant Numbers Per Plate) ([1]; TA100, +S-9, 160 ug/plate): 114.7
Fold Increase ([1]; TA100, +S-9, 500 ug/plate): 1.1
Mean (Revertant Numbers Per Plate) ([1]; TA100, +S-9, 500 ug/plate): 135
Fold Increase ([1]; TA100, +S-9, 1600 ug/plate): 0.9
Mean (Revertant Numbers Per Plate) ([1]; TA100, +S-9, 1600 ug/plate): 104
Fold Increase ([1]; TA100, +S-9, 5000 ug/plate): 1
Mean (Revertant Numbers Per Plate) ([1]; TA100, +S-9, 5000 ug/plate): 115.7
Fold Increase ([1]; TA100, -S-9, 5 ug/plate): 1.1
Mean (Revertant Numbers Per Plate) ([1]; TA100, -S-9, 5 ug/plate): 99.3
Fold Increase ([1]; TA100, -S-9, 16 ug/plate): 1.1
Mean (Revertant Numbers Per Plate) ([1]; TA100, -S-9, 16 ug/plate): 94
Fold Increase ([1]; TA100, -S-9, 50 ug/plate): 1.2
Mean (Revertant Numbers Per Plate) ([1]; TA100, -S-9, 50 ug/plate): 108.3
Fold Increase ([1]; TA100, -S-9, 160 ug/plate): 1
Mean (Revertant Numbers Per Plate) ([1]; TA100, -S-9, 160 ug/plate): 86.3
Fold Increase ([1]; TA100, -S-9, 500 ug/plate): 1.1
Mean (Revertant Numbers Per Plate) ([1]; TA100, -S-9, 500 ug/plate): 93
Fold Increase ([1]; TA100, -S-9, 1600 ug/plate): 1.2
Mean (Revertant Numbers Per Plate) ([1]; TA100, -S-9, 1600 ug/plate): 102
Fold Increase ([1]; TA100, -S-9, 5000 ug/plate): 1.1
Mean (Revertant Numbers Per Plate) ([1]; TA100, -S-9, 5000 ug/plate): 93
difference in revertant numbers vs control ([1]; TA102): < 1.5 fold
Fold Increase ([1]; TA102, +S-9, 5 ug/plate): 1.3
Mean (Revertant Numbers Per Plate) ([1]; TA102, +S-9, 5 ug/plate): 285
Fold Increase ([1]; TA102, +S-9, 16 ug/plate): 1.3
Mean (Revertant Numbers Per Plate) ([1]; TA102, +S-9, 16 ug/plate): 295.7
Fold Increase ([1]; TA102, +S-9, 50 ug/plate): 1.3
Mean (Revertant Numbers Per Plate) ([1]; TA102, +S-9, 50 ug/plate): 295
Fold Increase ([1]; TA102, +S-9, 160 ug/plate): 1.3
